Laboratory results reported in EP1042293B9, “SUBSTITUTED PYRIDINE AND PYRIDAZINE COMPOUNDS AND THEIR PHARMACEUTICAL USE” (AMGEN INC., priority 1997, dated 1999).

The compounds below were run on TNF production by monocytes activated with bacterial lipopolysaccharide (LPS) (assay: Lipopolysaccharide-activated monocyte TNF production assay). Conditions: Homo sapiens, 4 h, adherent PBMC-derived monocytes, LPS from E. coli, TNF in supernatant by ELISA, read-out: IC50 values in the monocyte assay (LPS induced TNF release).
Format: cell-based
Description: Test compounds were evaluated in vitro for the ability to inhibit the production of TNF by monocytes activated with bacterial lipopolysaccharide (LPS). Fresh residual source leukocytes (a byproduct of plateletpheresis) were obtained from a local blood bank, and peripheral blood mononuclear cells (PBMCs) were isolated by density gradient centrifugation on Ficol-Paque Plus (Pharmacia). PBMCs were suspended at […] /ml in DMEM supplemented to contain 2% FCS, 10 mM, 0.3 mg/ml glutamate, 100 U/ml penicillin G and […] streptomycin sulfate (complete media). Cells were plated into Falcon flat bottom, 96 well culture plates (200 µl/well) and cultured overnight at 37°C and 6% CO2. Non-adherent cells were removed by washing with 200 µl/well of fresh medium. Wells containing adherent cells (~70% monocytes) were replenished with 100 µl of fresh medium.
Test compounds were dissolved in […]. Compound stock solutions were prepared to an initial concentration of […]. Stocks were diluted initially to 20 - 200 µM in complete media. Nine twofold serial dilutions of each compound were then prepared in complete medium.
One hundred microliters of each test compound dilution were added to microtiter wells containing adherent monocytes and 100 µl complete medium. Monocytes were cultured with test compounds for 60 min at which time 25 µl of complete medium containing 30 ng/ml lipopolysaccharide from E. coli K532 were added to each well. Cells were cultured an additional 4 hrs. Culture supernatants were then removed and TNF presence in the supernatants was quantified using an ELISA.
Flat bottom, 96 well Corning High Binding ELISA plates were coated overnight (4°C) with 150 µL/well of 3 µg/ml murine anti-human TNF-α MAb (R&D Systems #MAB210). […]
Standard curve data were fit to a second order polynomial and unknown TNF-α concentrations determined from their OD by solving this equation for concentration. […]

SMILES | IC50 [µM]
Cc1cccc(-c2cc(=O)n(CCCc3ccccc3)cc2-c2ccncc2)c1 [Example 19, 1-(3-phenylpropyl)-4-(3-methylphenyl)-5-(4-pyridyl)-1H-pyrid-2-one] | ≤ 20
Cc1cccc(-c2cc(OCCCc3ccccc3)ncc2-c2ccncc2)c1 [Example 18, 2-(3-phenylpropoxy)-4-(3-methylphenyl)-5-(4-pyridyl)pyridine] | ≤ 20
Cc1cccc(-c2cc(OC[C@@H](N)Cc3ccccc3)ncc2-c2ccncc2)c1 [Example 14, 2-((S)-2-amino-3-phenylpropoxy)-4-(3-methylphenyl)-5-(4-pyridyl)pyridine] | ≤ 20
